# Experimental data published in US20230358677A1, “Reversible Excited-State Photoacids and Photobases as Dynamic Fluorescence Sensors of Protonic Species” (California Institute of Technology, priority 2022, published 2023).
# Read-outs that look alike come from different tables or passages of the source.
# Columns and labels:
# [1] = Acid-base titrations of NS—NH2 in the presence of proton-accepting quenchers (modified Stern-Volmer, Equation 7); conditions: for pKa: pKa,BH+ (Equation 7)
# Excerpt: Assuming that photoluminescence quenching occurs by ESPT from NS—NH2* to OH^−(aq), the data support that when aOH− is small (i.e. at pH less than about 12), ESPT can be quite slow compared to the excited-state lifetime of NS—NH2*, due to mass action (FIG. 2B). The non-unity quantum yield for ESPT in weakly alkaline aqueous solutions afforded us an opportunity to evaluate a series of aqueous proton-accepting quenchers (glycine (Gly(aq)), proline (Pro(aq)), and trifluoroethanol (TFE(aq))) for their ability to undergo ESPT with NS—NH2*. In order to clearly observe ESPT to a species other than OH^−(aq), added proton-accepting quenchers had to be more basic (ΔG^o<0), or slightly more acidic (ΔG^o>0), than NS—NH2*, and less basic than OH^−(aq). […] As pH values approach and pass the pKa of the proton-accepting quencher, the rate of ESPT slows from a decrease in the concentration of proton-accepting quencher due to its protonation. This is supported by observations from analogous experiments performed using different concentrations of quencher. Best fits of measured photoluminescence spectroscopy data to a modified Stern-Volmer equation for a two-quencher system, including both OH^−(aq) and proton-accepting quencher, provided bimolecular rate constants for deprotonation of the photoacid by each quencher,
# where KSV,OH−=K*^−1b and KSV,quencher=k+q,quencherτo,PAH* are the dynamic quenching constants for excited-state proton transfer to OH^−(aq) and proton-accepting quencher, respectively, k+q,quencher is the bimolecular rate constant (M^−1 s^−1) for ESPT quenching by the proton-accepting quencher, and the sum of the activities of B and BH^+ is approximated as the total concentration of the proton-accepting quencher. While the pKa of the proton-accepting quencher is an adjustable parameter during best fitting, extracted pKa values are close to pKa values obtained from the acid-base titration curves of the proton-accepting quenchers. Changing the proton-accepting quencher to one with a smaller pKa value results in a slower non-diffusion-limited rate constant for ESPT with NS—NH2*. The observation of ESPT directly from NS—NH2* to each of two different amino acids, Gly and Pro, is notable, and may have important implications for biological systems where direct protonation of proteins can induce cellular responses.
# Table 2 lists driving-force-dependent rate constants for direct excited-state proton transfer from NS—NH2* to various proton-accepting quenchers.
# Several embodiments use the steady-state ultraviolet-visible electronic absorption and photoluminescence spectroscopy for characterization. Equal amounts of aromatic amine photoacids are portioned into five separate 100 mL volumetric flasks. For the non-proton-accepting quencher experiments, the five flasks are filled to the volumetric marker with aqueous solutions of 1 M HCl, 1 M KOH, 2 M KOH, 3 M KOH, and 4 M KOH. The aqueous 1 M KOH solution is titrated with the aqueous 1 M HCl solution to reach the desired pH values from 14 to 6, and the H^+ activities are measured using a pH meter (pH/Ion 510). […] Electronic absorption spectra and photoluminescence spectra are acquired using absorbance and fluorescence spectrometer(s), using a square-bottom quartz cuvette (1 cm path length) at room temperature. Electronic absorption spectra are baselined on a spectrum of deionized water and were corrected for scattering of light. Photoluminescence spectra are recorded by exciting with 310 nm light, slit widths for the excitation and emission monochromators were set to 5 nm, and the PMT detector voltage is set to 600 V. Photoluminescence spectra are corrected for changes in solution refractive index, inner filter effects and the wavelength-dependent correction factor of the fluorimeter.
# [2] = proton acceptor, aqueous; cited from earlier work
# [3] = physchem
# [4] = cited from earlier work
# [5] = quenching of NS—NH2*, 1 M total quencher
structure (smiles),measurement,setting,value
O=C(O)[C@@H]1CCCN1 [Proline],"bimolecular rate constant, deprotonation of NS—NH2* by the quencher",[1]; 1 M total quencher,(1.70±0.05)×10^8 M^−1 s^−1
same,"k+q,corr","[1]; corrected rate constant, ESPT from NS—NH2* to the proton acceptor",7.11 ± 0.21 10^8 M^−1 s^−1
same,k+q,[1]; direct excited-state proton transfer from NS—NH2* to the proton acceptor,1.70 ± 0.05 10^8 M^−1 s^−1
same,pKa,[1]; value after the slash,10.8
same,pKa,[1]; value before the slash,10.7
same,"KSV,quencher (Equation 7)",[1]; [5],0.80 ± 0.02 M⁻¹
same,"KSV,quencher (traditional linearized Stern-Volmer)",[1]; [5],0.79 ± 0.01 M⁻¹
same,Diffusion Coefficient,[2],8.79 10^−6 cm^2/s
same,pKa,[3],10.8
same,"pKa, literature value",[4],10.5
